Patent publication EP3502102A1, “STING INHIBITORS” (ECOLE POLYTECHNIQUE FEDERALE DE LAUSANNE (EPFL), priority 2017, dated 2019)
Numbering of substitutions follows the chain as printed.

Experiments:
mmSTING [1] = target: T1, mmSTING (Mus musculus, UniProt Q3TBT3); experiment: Gel-based analysis of C-176-22 labelling (click chemistry, in-gel fluorescence) in HEK293T cells; format: binding; details: HEK293T expressing STING
T1 construct: expressed in transfected cells; host or cells: HEK293T (lentiviral transduction, induced overnight)
T1 sequence (Q3TBT3 1-378): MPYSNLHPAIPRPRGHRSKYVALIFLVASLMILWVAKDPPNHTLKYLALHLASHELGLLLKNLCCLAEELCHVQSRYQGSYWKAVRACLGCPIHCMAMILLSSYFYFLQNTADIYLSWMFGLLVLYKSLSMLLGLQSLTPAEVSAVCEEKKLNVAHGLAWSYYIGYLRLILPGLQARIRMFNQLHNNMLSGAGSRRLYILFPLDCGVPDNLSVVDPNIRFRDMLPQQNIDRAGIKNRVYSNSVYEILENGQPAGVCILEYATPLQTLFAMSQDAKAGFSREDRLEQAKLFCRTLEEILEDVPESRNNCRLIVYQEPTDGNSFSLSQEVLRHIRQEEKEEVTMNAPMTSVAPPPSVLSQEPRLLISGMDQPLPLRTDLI
Protocol: (§1) Reporter activity was measured 16 h after compound treatment. A nonlinear regression analysis was performed. […] Cytokine levels were normalized to DMSO-treated control cells. […] Nuclei were stained with DAPI. […] Depicted genes were measured by RT-qPCR. […] 16 h later Luciferase activity was measured. […] Flag-STING was immunoprecipitated and analysed by autoradiography.
(§2) HEK293T cells expressing Flag-STING were incubated with C-176-22 (0.25 µM) in serum free media, collected in PBSs and lysed by repetitive freezing and thawing. 43 µl of lysed cells were treated with freshly prepared "click reagent" mixture containing tris(benzyltriazolylmethyl)amine (TBTA) (3 µl/sample, 3 mM in 1:4 DMSO:t-ButOH), tetramethylrhodamine (TAMRA) azide (2 µl/sample, 1.25 mM in DMSO), and freshly prepared CuSO4 (1 µl/sample) and tris-(2-carboxyethyl)phosphine hydrochloride (TCEP) (1µl/sample) and incubated at room temperature for 1 h. The reaction was quenched by addition of reducing sample buffer. In-gel fluorescence was visualized using Fusion FX (Vilber Lourmat) and analysed by Fusion capt advance acquisition software.
(§3) We next sought to elucidate the molecular details of the interaction between C-178 and the TM part of STING. Our SAR studies highlighted the importance of the nitrofuran motif for the activity of the discovered inhibitors. Given the strong electrophilic potential of this group, we suspected that C-178 might react with a TM residue generating a covalent interaction. […] To further test the hypothesis of covalent engagement of STING, we synthesized a derivative of C-176-22, which bears an alkyne group amenable for copper-catalyzed azide alkyne cycloaddition (Click Chemistry) and performed gel-based profiling studies (Fig. 3d). Having verified that C-176-22 is still active (Fig. 7), HEK293T cells expressing STING were exposed to C-176-22, lysed, coupled to a tetramethylrhodamine (TAMRA-)azide tag and C-176-22-modified proteins were visualized using in-gel fluorescence scanning. HEK293T cells without STING served as a control for assessing non-specific protein labelling. […] Based on the observed mass shift, we postulate a nitrobenzyl rearrangement-like reaction to generate covalent bonding between C-178 and STING (see below). […] We next sought to identify the residue through which C-178 achieves binding to STING. Among the naturally occurring amino acids, cysteine residues are well-known targets of electrophilic small molecules. […] In addition, binding to and inhibition of STING are two separable functions of C-178.

mmSTING [2] = target: T2, mmSTING (Mus musculus, UniProt Q3TBT3, V27A); experiment: as above; format: binding; details: STING V27A; 0.25 µM
T2 construct: expressed in transfected cells; host or cells: HEK293T (lentiviral transduction, induced overnight)
T2 sequence (Q3TBT3 1-378 V27A): T1 sequence (Q3TBT3 1-378) with V27A
Protocol: as §1, §2, §3

mmSTING [3] = experiment: as above; format: binding, mouse; details: for labelling of STING mutant: 0.25 µM; for labelling of other protein targets / proteome-wide selectivity: whole cell lysate, C-176-22 0.25µM
Protocol: as §1, §2, §3

hsSTING = target: T3, hsSTING (Homo sapiens, UniProt Q86WV6); experiment: Gel-based analysis of C-176-22 labelling in HEK293T cells expressing human STING; format: binding; details: HEK293T cells that expressed human STING
T3 construct: expressed in transfected cells; host or cells: HEK293T
Protocol: as §1
HEK293T cells expressing Flag-STING were incubated with C-176-22 (0.25 µM) in serum free media, collected in PBSs and lysed by repetitive freezing and thawing. […] In-gel fluorescence was visualized using Fusion FX (Vilber Lourmat) and analysed by Fusion capt advance acquisition software.
We next sought to elucidate the molecular details of the interaction between C-178 and the TM part of STING. […] Having verified that C-176-22 is still active (Fig. 7), HEK293T cells expressing STING were exposed to C-176-22, lysed, coupled to a tetramethylrhodamine (TAMRA-)azide tag and C-176-22-modified proteins were visualized using in-gel fluorescence scanning. […]

STING = target: T4, STING (Mus musculus, UniProt Q3TBT3); experiment: IFN-beta luciferase reporter in HEK293T cells transfected with STING, alone or with a cyclic dinucleotide synthase; format: cell-based; design: expressed in transfected cells; host or cells: HEK293T; details: HEK293T transfected with mmSTING, 16 h
T4 sequence (Q3TBT3 1-378): T1 sequence (Q3TBT3 1-378)
Protocol: as §1
HEK293T cells expressing murine STING with an N-terminal mCherry-tag ^28 were transfected using GeneJuice (Millipore) with a construct encoding for cyclic di-GMP synthase in conjunction with an IFN-• firefly luciferase reporter plasmid. 3 h after transfection cells were seeded in […] (Corning) coated with library compounds. For each compounds, a 40 nl volume was selected to obtain a concentration of 10 µM in the assay plates. The amount of DMSO in each well was normalised to 0.1%. After overnight treatment, cells were lysed in lysis buffer (25 mM Tris-phosphate (pH 7.8), 2 mM DTT, 2 mM 1,2-diaminocyclohexane-N,N,N',N'-tetraacetic acid, 10% glycerol, 1% Triton® X-100) for 20 min followed by the addition of firefly luciferase. Reporter activity was measured using a Tecan Infinite plate reader. The screen was performed using on ∼ 20.000 compounds from a chemically diverse compound collection available at the BSF core facility at EPFL.
In these cells, transient transfection of vectors encoding for cyclic di-GMP synthase (cdG-Syn) and an IFN-• reporter leads to robust induction of firefly luciferase activity. We used this system to perform a high-throughput chemical screen with a library of ∼ 20.000 small molecule compounds (Fig. 6b). To increase the selectivity of candidate compounds against the STING pathway, hits from the primary screen were counter-screened for their effect on RIG-I-driven activation of the IFN-• reporter. […] To further validate the two small molecules, we treated wild-type HEK293T cells with C-178 and C-176, in which STING was either expressed alone or in conjunction with cdG-Syn. […] We next conducted a limited structure-activity relationship (SAR) analysis. Since both C-178 and C-176 share a characteristic nitrofuran moiety, we prepared analogues of C-176/8 in which this structural motif was substituted (Fig. 1c).

T3 sequence (Q86WV6 whole entry): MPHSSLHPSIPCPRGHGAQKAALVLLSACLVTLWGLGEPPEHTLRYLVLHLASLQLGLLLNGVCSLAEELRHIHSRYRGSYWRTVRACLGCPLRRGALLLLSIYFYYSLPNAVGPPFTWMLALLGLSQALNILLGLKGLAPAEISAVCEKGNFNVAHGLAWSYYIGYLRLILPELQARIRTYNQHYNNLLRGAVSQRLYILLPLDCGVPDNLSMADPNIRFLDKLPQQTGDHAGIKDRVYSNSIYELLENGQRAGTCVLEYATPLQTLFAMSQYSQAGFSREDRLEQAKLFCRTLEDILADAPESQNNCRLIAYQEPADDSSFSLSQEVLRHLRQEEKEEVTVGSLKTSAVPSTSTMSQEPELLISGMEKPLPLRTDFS

## C#Cc1ccc(NC(=O)c2ccc([N+](=O)[O-])o2)cc1 [C-176-22]
mmSTING [1]
  labelling of STING, in-gel fluorescence signal (37 kDa): marked, dose-dependent signal
mmSTING [2]
  labelling of STING mutant: efficiently interacted
mmSTING [3]; HEK293T cells that lacked STING expression
  labelling band in cells without STING: not detectable
mmSTING [3]; cysteine-to-alanine or cysteine-to-serine mutation at position 91
  labelling of STING mutant: completely abolished
mmSTING [3]; mutated C88
  labelling of STING mutant: did not influence
mmSTING [3]
  labelling of other protein targets / proteome-wide selectivity: negligible labelling
mmSTING [3]; listed as C176L
  labelling of other protein targets / proteome-wide selectivity: highly specifically labels mmSTING
hsSTING
  labelling of human STING: hardly detectable, if at all
STING
  inhibitory activity, IFN-• luciferase reporter: still active
STING; listed as C176L
  inhibitory activity, IFN-• luciferase reporter: inhibitory active
